| melting point [°C] | Structure (SMILES) |
| --- | --- |
| 160 | COc1c(O)ccc2c1OCC2=O |
| 49 to 51 | Clc1ccc(-c2ccc[nH]2)cc1Cl |
| 98 to 100 | CS(=O)(=O)Nc1cc2occ(N(C=O)CC(=O)O)c(=O)c2cc1Oc1ccccc1 |
| 94.5 to 97 | CC(C(=O)O)c1ccc(-c2ccccc2F)cc1 (configuration not stated) |
| 198 to 199 | O=C(O)c1cc(-n2c(-c3ccccc3)cc3c2CCC3)ccc1O |
| 167 to 168 | CN(CCOc1ccc(CC2SC(=O)NC2=O)cc1)c1nc2ccccc2s1 (configuration not stated) |
| 150 to 152 | COC(=O)c1cccc2c1-c1ccc3c(c1C(c1ccccc1)O2)C(C)=CC(C)(C)N3 (configuration not stated) |
| 90 | CN1CCC(OC2c3ccccc3CCn3c2nc(-c2ccccc2)c3-c2ccccc2)CC1 (configuration not stated) |
| 264 to 265 | O=C(O)c1ccc2c3c(ccc(C(O)=NC4CCCCC4)c13)CC2 |
| 180 to 181 | Clc1ncc(-c2ccnc(N3CCOCC3)n2)c2ccccc12 |
| 136 to 138 | CC(=O)Nc1ccccc1N1CCc2cc(Cl)ccc21 |
| 193 to 194 | NNC(=O)c1ccc2ncccc2c1 |
| 118 to 120 | O=C1NC(=O)C(Cc2ccc3c(c2)CCC(Cc2ccc(OCc4ccccc4)cc2)O3)S1 (configuration not stated) |
| 232 to 237 | c1ccc2c(c1)Cn1cnnc1CN2 |
| 101 to 103 | CCCc1nc2c(N)nc3cc(-c4ccccc4)ccc3c2n1CCCC(C)N(OC)C(=O)NC(C)C (configuration not stated) |
| 73 to 74 | CCCC1(C(=O)N(C)Cc2ccccc2)c2ccccc2-c2ccccc21 |
| 105 to 108 | Cc1ccc(CN2Cc3cncn3CC2=O)cc1 |
| > 310 | CCCNC1=NS(=O)(=O)c2cc(C(=O)O)ccc2N1 |
| 100 to 101 | COC(=O)c1ccc(Cl)c(O)c1 |
| 203 | O=C1CCC(C(=O)OC2c3ccccc3C(=O)N2c2ccc3ccc(Cl)nc3n2)CC1 (configuration not stated) |
| 106 to 108 | CCOC(=O)CC(NC(=O)c1ccc(Cl)cc1)C(=O)c1ccsc1 (configuration not stated) |
| 89 | C=CC(CC(O)C(CC1CCCCC1)NC(=O)C(Cc1c[nH]cn1)NC(=O)C(CN)(Cc1ccccc1)Cc1ccccc1)C(C)C (configuration not stated) |
| 66 to 67 | CC(CC(=O)O)c1ccc(-c2ccccc2)c(Cl)c1 (configuration not stated) |

| melting point [°C] | Structure (SMILES) |
| --- | --- |
| 162 to 169 | Cc1ccc(S(=O)(=O)N2CCCC2C(=O)OC2c3cc(C#N)ccc3OC(C)(C)C2Br)cc1 (configuration not stated) |
| 152 | CC(=O)Nc1ccc(C(=O)c2cc(-c3ccc(NC(C)=O)cc3)c(N3CCOCC3)s2)cc1 |
| 184 to 185 | O=C(OCC12CCCN(CC1)C2)c1c[nH]c2ccccc12 (configuration not stated) |
| 265 to 266 | CC(=O)N[C@H](CC(N)=O)C(=O)Nc1ccc(-c2ccc(C(=O)O)c(=O)[nH]2)cc1 |
| 213 | CNC(=O)N1CCc2[nH]cnc2C1 |
| 204 to 206 | CCOC(=O)c1ccc(C=C2C(=O)COC2=O)s1 |
| 124 to 125 | CCCCCCCCCCCCc1ccccc1C(Sc1nc(CCC)c(C(=O)O)n1C)C(=O)O (configuration not stated) |
| 87 to 89 | CC1(C)C2CC[C@]1(C)C(=O)C(C(=O)Nc1ccc(F)c(Cl)c1)C2=O (some centres not stated) |
| 68.6 | CC(C)(C)OC(=O)COc1ccccc1C=O |
| 173 to 176 | CC1(O)CC(=O)OC(c2ccc(-c3ccccc3)cc2)C1Br (configuration not stated) |
| 107 to 109 | NCCC1(O)CCc2ccccc2C12CCCC2 (configuration not stated) |
| 80 | CC(=O)SCC(=Cc1ccccc1)C(=O)NCCC(=O)OCc1ccccc1 |
| 175 to 176 | CC(C)CCOc1c(Cl)c(Sc2ccccc2N)c(OCCC(C)C)c2c1C(=N)NC2=N |
| 88 to 89 | CCNC(=O)n1nc(Oc2c(Cl)cc(C(F)(F)F)cc2Cl)cc1-c1ccc(Cl)cc1 |
| 70 to 73 | NC(=O)c1ccc(CCCCCCN2CCOCC2)cc1O |
| 179 to 180 | CC(C)(Oc1ccc(CCC(=O)c2ccc(-c3ccccc3)s2)c(Cl)c1Cl)C(=O)O |
| 79 to 84 | COC(=O)C(NC(=O)N1C2CCC(C2)N1CC(O)C(Cc1ccccc1)NC(=O)C(NOCc1ccccn1)C(C)C)C(C)C (mixture of isomers) |
| 131 | CCOc1ccc2c(c1)n(C1CCCCC1)c(=O)n2S(=O)(=O)c1ccc(C(=O)OCc2ccccc2)cc1OC |
| 228 to 233 | O=C(Nc1cccc(Cl)c1C(=O)O)c1ccc(F)cc1 |
| 193 to 195 | COc1cccc(N2CCCN(c3ccnc4sc(C(N)=O)c(N)c34)CC2)c1 |
| 150 | CCN(CC)C(=O)[C@H]1C[C@H](C(=O)OC(C)(C)C)N(C(=O)CNC(=O)Nc2cccc(C(=O)O)c2)[C@@H]1c1ccccc1F (racemic) |
| 79.5 to 80.5 | c1ccc(OCc2ccc3ccccc3n2)cc1 |
| 307 to 310 | CCCn1c(=O)c2c(NC)n[nH]c2n(Cc2ccccc2)c1=O |

Second part, the compound before the results:

| Structure (SMILES) | melting point [°C] |
| --- | --- |
| C/C(Cl)=C/CC(C(=O)O)C(=O)O | 95 to 97 |
| CCOC(=O)c1csc(NC(=O)c2cc(OC)c(OC)cc2O)n1 | 218 to 220 |
| CCOC(=O)NC(=S)NCCOCC1=C(C(=O)OCC)C(c2cccc(Cl)c2Cl)C(C(=O)OC)=C(C)N1 (configuration not stated) | 144 |
| O=c1cc(-c2ccc(C(F)(F)F)cc2)cc(C(F)(F)F)o1 | 52 |
| c1ccc(OC(Oc2ccccc2)Oc2c3ccccc3cc3ccccc23)cc1 | 90 to 92 |
| CC(C)n1cnc2c(Nc3ccc([N+](=O)[O-])cc3)nc(Cl)nc21 | > 260 |
| CC(C)(C)c1cc(CCc2cc(F)cc(F)c2NC(=O)NC23CC4CC(CC(C4)C2)C3)cc(C(C)(C)C)c1O | 218 to 220 |
| Cc1cnc2c(N)ccc(C)c2c1Cl | 120 to 122 |
| O=c1[nH]ncn1-c1ccc(-n2ncn(-c3ccc(OCC(F)(F)C(F)F)cc3)c2=O)cc1 | 297 to 298 |
| CC(C)C[C@H](NC(=O)OC(C)(C)C)[C@@H](O)c1ncnn1C | 144 to 145 |
| COC(=O)C1(c2ccc([N+](=O)[O-])cc2)CO1 (configuration not stated) | 78 to 82 |
| CSC1NC(=O)N(C)C(=O)N1C (configuration not stated) | 137 to 139 |
| Cc1ccc(NC(=O)c2cccc(C(F)(F)F)c2)cc1-c1ccc2ncsc2c1 | 94 to 96 |
| CCc1ccc2c(c1)C=Cc1cc(C)ccc1C2c1cn(-c2nccc(C(=O)NCC(=O)O)n2)c(=O)[nH]c1=O (configuration not stated) | 195 to 198 |
| N#Cc1c(F)ccc(F)c1N | 90 to 92 |
| CC(C)c1cc2ncnn2nc1SCCCCl | 82 to 83 |
| O=C1CCCCC(CCc2nc3cc(Br)cnc3[nH]2)N1 (configuration not stated) | 245 |
| CC1(C)OC(=O)C(Sc2nccs2)=C1c1ccc(S(C)(=O)=O)cc1 | 174 to 176 |
| NCCc1ccc(N)cn1 | 42 to 45 |

| Structure (SMILES) | melting point [°C] |
| --- | --- |
| OCCn1cc(-c2ccc3nnn(Cc4ccc(F)cc4)c3n2)cn1 | 204 to 206 |
| CC(C)(C)c1cc(=O)cc(C(C)(C)C)s1 | 97 to 98 |
| CC(C)Oc1ccc(CCCCC2OC(=O)NC2=O)cc1 (configuration not stated) | 81 to 82 |
| COc1ccc(-c2nc(CN(c3ccccc3)c3ccccc3)nc3cc(OC)c(OC)cc23)cc1OC | 215 to 216 |
| CC(C)c1ccc(C#N)nc1 | 47 to 49 |
| C[C@H]1CCCC(C)(C)[C@@H]1[C@H](O)c1ccc(C#N)c(C(F)(F)F)c1 | 118 to 119 |
| Cc1ccc(S(=O)(=O)N[C@@H](C)C(=O)O)cc1 | 134 to 135 |
| CCC1C(C)=NN=C(c2ccc(OC)c(OC)c2)c2cc(OC)c(OC(C)C)cc21 (configuration not stated) | 109 to 111 |
| CCCC[C@H](NC(=O)OC(C)(C)C)C(=O)CCCc1cccs1 | 50.5 to 52.5 |
| CC(C)(C)OC(=O)NCCCCNC(=O)COc1cccc(C(F)(F)F)c1 | 86 |
| Cc1cc(-c2nnc3cc(C(C)(C)C)c(OCc4ncn(C)n4)nn23)no1 | 221 to 223 |
| Cc1ccc(-c2cccnc2C#N)cc1 | 136 to 138 |
| O=c1[nH]nnn1-c1ccc(Cl)cc1F | 185 to 187 |
| Cn1c([N+](=O)[O-])cnc1-c1nc(C=O)cs1 | 180 to 182 |
| Cc1ccc(C#N)cc1-c1cc2cnc(NC3CCOCC3)nc2n(C)c1=O | 254 |
| CCn1cc(-c2cccc(C(F)(F)F)c2)c(=O)n1-c1cccc(C(F)(F)F)c1 | 110 to 111 |
| CC(=O)OCc1nnc(N)s1 | 191 to 192 |
| CNc1ncnc2ccc(I)cc12 | 245 |
| N#CN=C(NCCO)NCc1ccc(-c2csc(N=C(N)N)n2)o1 | 208 to 209 |

| Structure (SMILES) | melting point [°C] |
| --- | --- |
| CC(C)n1c2cc(C(F)(F)F)ccc2c2oc(C(=O)Cl)cc21 | 128 to 129 |
| FC(F)(F)Oc1ccc2nc(Cc3cn4ccsc4n3)[nH]c2c1 | 177 to 179 |
| CCN1c2ncc(COc3ccc(C(=O)OC)cc3)cc2C(=O)N(C)c2ccc(Cl)nc21 | 196 to 197 |
| C1=CC2=NCCC3CCOC23C=C1 (configuration not stated) | 170 to 171 |
| CC(C)c1ccc(C(=O)CCCCl)cc1 | 35 to 37 |
| CC(C)(C)c1cc(C2=CCCCC2)c(O)c(C(C)(C)C)c1 | 102 to 104 |
| Cc1ccc(C(=O)NCC(N)=O)cc1-c1cccc2cc(Cc3cccc(C(F)(F)F)c3)sc12 | 165 to 166 |
| COc1ccnc(C(C)Sc2nc3cc(OC(F)(F)C(F)Cl)ccc3[nH]2)c1 (configuration not stated) | 120 to 122 |
| Cn1cc(OS(C)(=O)=O)c(=O)c2ccc(C#N)cc21 | 268 |
| CCc1oc2ccc(Cl)cc2c1C(=O)c1ccc(Cl)c(S(N)(=O)=O)c1 | 130 to 133 |
| CCOP(=O)(Cc1cc(C)c(O)c(C)c1)OCC | 65 |
| C=C(CC(Cl)(Cl)Cl)c1cnc(Cl)c(Cl)c1 | 76 to 77 |
| Cc1nc(C(C)C)c(Sc2cc(Cl)cc(Cl)c2)n1C | 95 to 96 |
| CC(=O)On1c(C(F)(F)F)nc2ncc(Cl)cc21 | 103 |
| COc1cc(Br)c(OC(=O)c2ccc(OC)c(C(F)(F)F)c2)c(NC(=O)c2ccc(OC)c(C(F)(F)F)c2)c1 | 205 to 208 |
| CN(Cc1ccccc1)Cc1c(-c2ccc(NC(=O)C(C)(C)O)cc2)sc2c1c(=O)c(C(=O)c1ccccc1)cn2Cc1c(F)cccc1F | 222 to 223 |
| C[C@@H]1C[C@@H]([C@H](CC2CCCCC2)NC(=O)OC(C)(C)C)OC1=O | 80 to 82 |
| COC(=O)c1ccc2cc(-c3ccc4c(c3)C(C)(C)CCC4(C)C)n(C)c2c1 | 156 |

Reference: a melting point compilation (Tetko et al.; mined from patent text by program, amines drawn as free bases though some values may be those of a salt)
